The nature of data set [1]: Pharmacokinetic (PK) study in mice, oral dosing, galiellalactone quantified in plasma. In kind it is in vivo. Conditions: for AUC 0-t / AUC 0-∞ / plasma exposure of galiellalactone compared to oral administration of galiellalactone itself (in words): oral 10 mg/kg; for AUC 0-t / AUC 0-∞: galiellalactone (GL) in plasma; for AUC 0-t: 0 minutes to last quantifiable data point; for AUC 0-∞: extrapolated to infinity. The procedure: The usefulness of the compounds, as defined in the embodiments herein, as prodrugs to enhance the plasma exposure of tricyclic compounds that may be used treating, revoking, mitigating, alleviating and/or preventing different forms of cancer, were evaluated in an in vivo pharmacokinetic (PK) study in mice.
Doses of the test items were prepared at a drug concentration of 0.5 mg/mL in 5% DMSO in 50 mM citrate buffer (citric acid/sodium citrate), pH 4.0.
Oral doses were administered in a volume of 20 mL/kg (10 mg/kg) to groups of 24 mice and blood samples taken, under terminal barbiturate anaesthesia, at eight time-points out to 8 hours post-dose (n=3 mice per time-point).
Blood samples were transferred to tubes containing EDTA as anticoagulant and, as soon as practicable after collection, samples were centrifuged to yield plasma which was immediately frozen awaiting analysis. Following blood collection, brains were removed from all animals for possible future analysis and immediately frozen by immersion in liquid nitrogen. All samples were analyzed using LC-MS/MS.
Plasma proteins were precipitated and compounds extracted by the addition of three volumes of acetonitrile containing analytical internal standard (reserpine). Samples were centrifuged for 30 minutes at 3452 g in a Sorvall bench centrifuge and the supernatant fractions removed for MS analysis.
Quantification of the active compound e.g. galiellalactone, was by extrapolation from calibration lines prepared in control mouse plasma and analyzed concurrently with experimental samples and Quality Control (QC) samples prepared in control mouse plasma. If the compounds were instable in mouse plasma, calibration lines were constructed in water for qualitative MS comparison with any signal seen in plasma samples.
Pharmacokinetic parameters of the test items were determined using the mean data from the n=3 mice at each time-point. Non-compartmental analysis was performed using the software package PK Solutions 2.0 from Summit Research Services. AUC values were calculated by the trapezoidal method.
AUC 0-t: Area under the plasma drug concentration/time curve from 0 minutes to last quantifiable data point
AUC 0-∞: Area under the curve from 0 minutes extrapolated to infinity

Data set [2] in a line: Chemical stability in phosphate buffered saline. In kind it is physicochemical. The settings on record: for chemical stability in 0.1 M PBS (in words): 0.1 M PBS (pH 7.4); for half-life at 10 μM: 0.1 M phosphate buffered saline, 0.1 M PBS pH 7.4, 10 μM, room temperature. The procedure: The chemical stability of test compounds was determined in 96-well plate format. Compounds in DMSO stock solutions were diluted (n=2) in the required matrix (0.1 M phosphate buffered saline) to a concentration of 10 μM (2% DMSO final) and mixed at room temperature on an orbital shaker, with aliquots removed at 2 and 4 hours for testing. DMSO, containing an analytical internal standard, was added to the aliquots, vortex-mixed and analysed immediately by LC-MS/MS. Equivalent T=0 samples were also included, with sample preparation staggered to allow sequential injections of timed aliquots and the T=0 samples.
The amount of compound remaining (expressed as %) was determined from the MS response in each sample relative to that in the T=0 samples (normalized for internal standard).
Ln plots of the % remaining were used to determine the half-life of compound disappearance from the relationship:
t1/2 (min)=−0.693/λ, where λ is the slope of the Ln concentration vs time curve.

Data set [3] has as its system PC-3. The experiment in a line: WST-1 cell proliferation assay, PC-3. In kind it is cell-based. The settings on record: PC3 (pSTAT3 −), 72 hours/10 μM, percent of untreated control cells. The procedure: (§1) The functional activity of example 15 in comparison to galiellalactone was evaluated using WST-1 proliferation assay (J. Biol. Chem. 2014, 289:15969-15978) on DU145, PC-3, LNCaP or IL-6 stimulated LNCaP. The cells were cultured in 96-well plates (2000 cells/well in 200 μl of medium) and allowed to set for 24 h. The cells were treated with 10 μM of 4α-fluoro-galiellalactone or galiellalactone for 72 h. Samples were made in triplicate. 20 μl WST-1 solution (Roche Applied Science) was added per well and incubated at 37° C. for 4 h. The absorbance of each well was measured using a scanning multi-well spectrophotometer, ELISA reader at a wavelength of 450 nm and reference wavelength of 690 nm. The results presented in Table 3 below are presented as percent of untreated control cells.
(Tetrazolium assays rely on reduction of a dye to a coloured formazan, in cell work by metabolically active cells.)

Data set [4] relates to IL-6 stimulated LNCaP. The experiment in a line: WST-1 cell proliferation assay, IL-6 stimulated LNCaP. In kind it is cell-based. The settings on record: LNCaP-IL6 (pSTAT3 +), 72 hours/10 μM, percent of untreated control cells. As for the experimental part:
as §1

Data set [5] deals with LNCaP. The data set is described as follows: WST-1 cell proliferation assay, LNCaP. In kind it is cell-based. The settings on record: LNCaP (pSTAT3 −), 72 hours/10 μM, percent of untreated control cells. The procedure:
as §1

Data set [6] has as its system DU145. The experiment in a line: WST-1 cell proliferation assay, DU145. In kind it is cell-based. The settings on record: DU145 (pSTAT3 +), 72 hours/10 μM, percent of untreated control cells. The procedure:
as §1

Data set [7] relates to STAT3. The experiment in a line: WST-1 proliferation, pSTAT3 negative versus pSTAT3 positive cell lines. In kind it is cell-based. The settings on record: 10 μM; pSTAT3 negative PC3, LNCaP versus pSTAT3 positive cells. As for the experimental part:
as §1
On the other hand, the pSTAT3 positive cells are equally sensitive to 4α-fluoro-galiellalactone and galiellalactone.

For data set [8], the system named is IL-6/STAT3 signaling. Conditions: cited from earlier work.
The test system of data set [9] is STAT3 expressing DU145 prostate cancer cells. Conditions: Prostate 68:269-280 (2008); cited from earlier work.

Consider 18 compounds from patent publication US10077246B2, “Tricyclic prodrugs” (Glactone Pharma Development AB, priority 2014, dated 2018).

SMILES strings stand for the structures.

As a reminder, the half-life is the time needed for the level to fall by half in the phase considered. As a reminder, the AUC(0-inf) is the area under the concentration-time curve extrapolated to infinity. Read a low AUC(0-inf) as less exposure.

For `CCCCS[C@H]1C2C(=O)O[C@@H]3CC[C@H](C[C@@H]1C)[C@]23O` (stereo partly drawn) [Example 1, 3β-(Butyllthio)-2aβ,3-dihydrogaliellalactone], in data set [1], the “AUC 0-t” value is reported as 85 μg GL/mL•min and the “AUC 0-∞” value is 102 μg GL/mL•min.

Take `C[C@H]1C[C@H]2CC[C@H]3OC(=O)C([C@@H]1Sc1ccccc1)[C@@]23O` (stereo partly drawn) [Example 2, 3β-(Phenylthio)-2aβ,3-dihydrogaliellalactone]: in [1], the “AUC 0-t” value stood at 36 μg GL/mL•min and the “AUC 0-∞” value is 41 μg GL/mL•min.

Consider `COC(=O)[C@H](CS[C@H]1C2C(=O)O[C@@H]3CC[C@H](C[C@@H]1C)[C@]23O)NC(C)=O` (stereo partly drawn) [Example 3, 3β-(N-acetyl L-cysteinemethyl ester)-2aβ,3-dihydrogaliellalactone], for which, in data set [2], the “chemical stability in 0.1 M PBS (in words)” value (shortened to “chemical stability”) is “chemically stable” and the half-life at 10 μM is more than 2.5 h. Besides, in data set [1], the “plasma exposure of galiellalactone compared to oral administration of galiellalactone itself (in words)” value is reported as “significantly improve”, the “AUC 0-t” value was determined as 117 μg GL/mL•min and the “AUC 0-∞” value is on record as 120 μg GL/mL•min.

As for `CCOC(=O)[C@H](CS[C@H]1C2C(=O)O[C@@H]3CC[C@H](C[C@@H]1C)[C@]23O)NC(C)=O` (stereo partly drawn) [Example 4, 3β-(N-acetyl L-cysteineethyl ester)-2aβ,3-dihydrogaliellalactone], in data set [1], the “AUC 0-t” value was 20 μg GL/mL•min and the “AUC 0-∞” value is listed as 22 μg GL/mL•min.

With `COC(=O)[C@H](CS[C@H]1C2C(=O)O[C@@H]3CC[C@H](C[C@@H]1C)[C@]23O)NC(=O)C(C)C` (stereo partly drawn) [Example 5], the half-life at 10 μM in data set [2] was more than 2.3 h. Besides, in [1], the “AUC 0-t” value amounted to 15 μg GL/mL•min and the “AUC 0-∞” value is 21 μg GL/mL•min.

For `COC(=O)[C@H](CS[C@H]1C2C(=O)O[C@@H]3CC[C@H](C[C@@H]1C)[C@]23O)NC(=O)OC(C)(C)C` (stereo partly drawn) [Example 6, 3β-(N-(tert-butylcarbonate)-L-cysteinemethyl ester)-2aβ,3-dihydrogaliellalactone], in [2], the half-life at 10 μM was more than 2.5 h. In addition, in [1], the “AUC 0-t” value was 11 μg GL/mL•min and the “AUC 0-∞” value is recorded as 17 μg GL/mL•min.

In the case of `CC(=O)N[C@@H](CS[C@H]1C2C(=O)O[C@@H]3CC[C@H](C[C@@H]1C)[C@]23O)C(N)=O` (stereo partly drawn) [Example 7, 3β-(N-acetyl L-cysteine amide)-2aβ,3-dihydrogaliellalactone], the half-life at 10 μM in [2] is more than 2.5 h.

Consider `C[C@H]1C[C@H]2CC[C@H]3OC(=O)C([C@@H]1SCCS(=O)(=O)[O-])[C@@]23O.[Na+]` (stereo partly drawn) [Example 8, 3β-(ethyl sulphonate)-2aβ,3-dihydrogaliellalactone sodium], for which the half-life at 10 μM in [2] is more than 2.5 h.

As to `C[C@H]1C[C@H]2CC[C@H]3OC(=O)C([C@@H]1SCC(NC(=O)CCC(N)C(=O)O)C(=O)NCC(=O)O)[C@@]23O` (stereo partly drawn) [Example 9, 3β-(glutathione)-2aβ,3-dihydrogaliellalactone], the half-life at 10 μM in data set [2] is more than 2.5 h.

Consider `COC(=O)[C@H](CCS[C@H]1C2C(=O)O[C@@H]3CC[C@H](C[C@@H]1C)[C@]23O)NC(C)=O` (stereo partly drawn) [Example 12, 3β-(N-acetyl-L-homocysteinemethyl ester)-2aβ,3-dihydrogaliellalactone], for which, in data set [1], the “AUC 0-t” value was found to be 150 μg GL/mL•min and the “AUC 0-∞” value is 155 μg GL/mL•min.

Take `COC(=O)[C@H](CS[C@H]1C2C(=O)O[C@@H]3CC[C@H](C[C@@H]1C)[C@]23O)NC(=O)c1ccccc1F` (stereo partly drawn) [Example 13, 3β-(N-(2-fluorobenzoyl)-L-cysteinemethyl ester)-2aβ,3-dihydrogaliellalactone]: in [1], the “AUC 0-t” value is given as 7.8 μg GL/mL•min and the “AUC 0-∞” value was 11 μg GL/mL•min.

For `COC(=O)[C@H](CS[C@H]1C2C(=O)O[C@@H]3CC[C@H](C[C@@H]1C)[C@]23O)NC(=O)[C@@H](N)C(C)C` (stereo partly drawn) [Example 14, 3β-(N-(L-valine)-L-cysteinemethyl ester)-2aβ,3-dihydrogaliellalactone], in [2], the “chemical stability” value is “chemically stable”. Besides, in data set [1], the “AUC 0-t” value is given as 97 μg GL/mL•min and the “AUC 0-∞” value is listed as 101 μg GL/mL•min.

Regarding `C[C@@]1(F)C=C2C(=O)O[C@@H]3CC[C@H](C1)[C@]23O` [Example 15, 4α-fluoro-galiellalactone], the “% Remaining Proliferation” value in [3] is 68%; in [4] it was 20%; in data set [5], 105%; in data set [6], 16%. In data set [7], the “selectivity for STAT3 compared with galiellalactone (in words)” value is reported as “significantly more selective”.

Take `C[C@@H]1C=C2C(=O)O[C@@H]3CC[C@H](C1)[C@]23O` [Galiellalactone, (−)-Galiellalactone, reference compound]: the “% Remaining Proliferation” value in [3] was 31%; in data set [4], 17%; in data set [5], 77%; in data set [6], 18%. In addition, the “inhibition of IL-6/STAT3 signaling” value in data set [8] is listed as “submicromolar”. Besides, the AUC(0-inf) in [1] (mouse, oral administration 10 mg/kg, plasma galiellalactone) is 95 ng·h/mL. Further, the “AUC 0-t” value in [1] is listed as 5 μg GL/mL•min. Further, the “AUC 0-∞” value in data set [1] is listed as 6 μg GL/mL•min. Also, the “proliferation of DU145 prostate cancer cells (in words)” value in data set [9] is “inhibits the proliferation”.

As to `C[C@H]1C[C@H]2CC[C@H]3OC(=O)C([C@@H]1N1CCCC1)[C@@]23O.Cl` (stereo partly drawn) [drawing 42, 3β-(N-pyrrolidine)-2aβ,3-dihydrogaliellalactone, reference compound], in [2], the “chemical stability” value is recorded as “very unstable”. In addition, in data set [1], the “plasma exposure of galiellalactone compared to oral administration of galiellalactone itself (in words)” value was “do not increase the AUC”, the “AUC 0-t” value turned out to be 2.2 μg GL/mL•min and the “AUC 0-∞” value was 2.5 μg GL/mL•min.

Take `C[C@H]1C[C@H]2CC[C@H]3OC(=O)C([C@@H]1N1CCCC1)[C@@]23O.Cl` (stereo partly drawn) [drawing 45, reference compound]: in data set [2], the half-life at 10 μM was 0.3 h.

Take `COC(=O)C(N)CS[C@H]1C2C(=O)O[C@@H]3CC[C@H](C[C@@H]1C)[C@]23O` (stereo partly drawn) [reference compound]: the half-life at 10 μM in data set [2] was determined as 0.367 h.

In turn, `C[C@H]1C[C@H]2CC[C@H]3OC(=O)C([C@@H]1SCC(N)C(=O)O)[C@@]23O` (stereo partly drawn) [reference compound] had a half-life at 10 μM in data set [2] of 0.233 h.
